Experimental data from patent US20230021483A1, “[…] […] METHOD AND CLASSIFICATION OF PHARMACEUTICAL COMPONENTS BY USING TRANSCRIPTOMES” (National Institutes of Biomedical Innovation, Health and …, priority 2016, published 2023).

How the values were obtained:
Type in all cases: in vivo, C57BL/6 mice
spleen (SP) = assay: Whole organ transcriptome (GeneChip microarray) of spleen 6 h after adjuvant administration: sDEGs, hierarchical clustering; settings: for adjuvant group (cluster) in SP: hierarchical clustering; for Number of gene probes with statistically significant changes (sDEGs), SP, Down: fold change <0.667, p<0.01, customized PA call=1, 6 h after adjuvant; for Number of gene probes with statistically significant changes (sDEGs), SP, Up: fold change >1.5, p<0.01, customized PA call=1, 6 h after adjuvant; for adjuvant group (cluster) in SP: key: G1 (interferon signaling); G2 (metabolism of lipids and lipoproteins); G3 (response to stress); G4 (response to wounding); G5 (phosphate-containing compound metabolic process); G6 (phagosome)
LV, SP and LNs = assay: Whole organ transcriptome across organs (adjuvant gene space): gene responses and adjuvant grouping; settings: for adjuvant group (cluster) within the adjuvant gene space: hierarchical clustering, LV, SP and/or LNs; for gene expression changes in LV and SP: Table 15, route not given; for distribution/strength of gene responses between local LNs and systemic organs (LV, SP): 6 h after i.d. (local) administration
circulating blood cells = assay: Hematological cell count of peripheral blood 6 h after adjuvant administration (VetScan HMII)
Experimental: Take about 200 μL of blood from the retro-orbital venous plexus with a non-heparinized capillary tube and place the blood into a 1.5 mL tube comprising 2 μL of 10% EDTA-2K for hematological testing. Thoroughly mix the sample by gentle tapping. Stored at room temperature until hematological testing.
The hematological cell count was found using VetScan HMII (Abaxis). 50 μl of EDTA-2K blood sample was diluted by adding 250 μl of saline. Measurements are taken with VetScan HMII by following the instruction.
In a preliminary experiment, FCA and ALM were tested at different points up to 72 hours. […] At 6 hours after adjuvant administration, LV, SP, and LN (both sides) were removed to study the gene expression thereof by using Affimetrix Genechip microarray system (Affymetrix). The sampled organs were each placed in a tube containing RNAlater. The tube was maintained at 4° C. overnight, and stored at −80° C. until use. Blood was also collected after 6 hours from adjuvant administration for general hematological testing. About 200 μL of blood was taken from the retro-orbital venous plexus with a non-heparinized capillary tube and placed into a 1.5 mL tube comprising 2 μL of 10% EDTA-2K for hematological testing. The hematological cell count was found using VetScan HMII (Abaxis). 50 μl of EDTA-2K blood sample was diluted by adding 250 μl of saline. Measurements were taken with VetScan HMII by following the instruction.
The effect of adjuvant administration with respect to the changes in several hematological parameters was investigated. The following parameters were studied: white blood cells (WBC), lymphocytes (LYM), monocytes (MON), granulocytes (GRA), relative (%) content of lymphocytes (LY %), relative (%) content of monocytes (MO %), relative (%) content of granulocytes (GR %), red blood cells (RBC), hemoglobins (Hb, HGB), hematocrits (HCT), mean corpuscular volume (MCV), mean corpuscular hemoglobins (MCH), mean corpuscular hemoglobin concentration (MCHC), red blood cell distribution width (RDW), platelets (PLT), platelet concentration (PCT), mean platelet volume (MPV), and platelet distribution width (PDW).

[1] = peripheral blood 6 h after administration

| Compound | adjuvant group (cluster) in SP (spleen (SP)) | Number of gene probes with statistically significant changes (sDEGs), SP, Down (spleen (SP); i.d. administration) | Number of gene probes with statistically significant changes (sDEGs), SP, Up (spleen (SP); i.d. administration) | adjuvant group (cluster) within the adjuvant gene space (LV, SP and LNs) | monocytosis (monocytes in blood) (circulating blood cells; [1]) | distribution/strength of gene responses between local LNs and systemic organs (LV, SP) (LV, SP and LNs) | further results |
| --- | --- | --- | --- | --- | --- | --- | --- |
| Cc1ccc2c(=O)c3cccc(CC(=O)O)c3oc2c1C [DMXAA, 5,6-dimethylxanthenone-4-acetic acid] | G1 | 48 | 121 | group (G) 1 |  |  |  |
| CCOCc1nc2c(N)nc3ccccc3c2n1CC(C)(C)O [R848, 4-amino-2-(ethoxymethyl)-a,a-dimethyl-1H-imidazo[4,5-c]quinoline-1-ethanol] | G1 |  |  |  |  |  | leukopenia (circulating blood cells; [1]): caused leukopenia; lymphopenia (circulating blood cells; [1]): strongly induced |
| CC(O)COC[C@H]1O[C@@H]2O[C@H]3[C@H](O)[C@@H](O)[C@@H](O[C@H]4[C@H](O)[C@@H](O)[C@@H](O[C@H]5[C@H](O)[C@@H](O)[C@@H](O[C@H]6[C@H](O)[C@@H](O)[C@@H](O[C@H]7[C@H](O)[C@@H](O)[C@@H](O[C@H]8[C@H](O)[C@@H](O)[C@@H](O[C@H]1[C@H](O)[C@H]2O)O[C@@H]8COCC(C)O)O[C@@H]7COCC(C)O)O[C@@H]6COCC(C)O)O[C@@H]5COCC(C)O)O[C@@H]4COCC(C)O)O[C@@H]3COCC(C)O (stereo partly drawn) [bCD, Hydroxypropyl-beta-cyclodextrin] | G2 | 59 | 111 | G2 | clearly induced |  | Number of gene probes with statistically significant changes (sDEGs), SP, Down (spleen (SP); i.p. administration): 5; Number of gene probes with statistically significant changes (sDEGs), SP, Up (spleen (SP); i.p. administration): 4; gene expression changes in LV and SP (LV, SP and LNs; 6 h): relatively weaker responses |
| Nc1nc2c(ncn2[C@@H]2O[C@@H]3COP(=O)(O)O[C@H]4[C@@H](O)[C@H](n5cnc6c(N)ncnc65)O[C@@H]4COP(=O)(O)O[C@@H]2[C@@H]3O)c(=O)[nH]1 [cGAMP, Cyclic [G(2′,5′)pA(3′,5′)p]] | G1 | 93 | 680 | group (G) 1 | clearly induced |  |  |
| Nc1nc2c(ncn2[C@@H]2O[C@@H]3COP(=O)(O)O[C@H]4[C@@H](O)[C@H](n5cnc6c(=O)[nH]c(N)nc65)O[C@@H]4COP(=O)(O)O[C@H]3[C@H]2O)c(=O)[nH]1 [cdiGMP, Cyclic diguanylate monophosphate] | G1 |  |  | group (G) 1 | clearly induced |  |  |
| D35: A class CpG ODN (5′-GGTGCATCGATGCAGGGGGG-3′), TLR9 ligand (DNA GGTGCATCGATGCAGGGGGG; chemistry not given here) |  | 19 | 23 | G5 |  | acted on local LNs but not in the systemic remote organs |  |
| K3: B class CpG ODN (ATCGACTCTCGAGCGTTCTC), TLR9 ligand (chemistry not given here) |  | 18 | 11 | G5 |  | acted on local LNs but not in the systemic remote organs | Number of gene probes with statistically significant changes (sDEGs), SP, Down (spleen (SP); i.p. administration): 10; Number of gene probes with statistically significant changes (sDEGs), SP, Up (spleen (SP); i.p. administration): 24; gene expression changes in LV and SP (LV, SP and LNs; 6 h): relatively weaker responses |
| Monophosphoryl lipid A [MPLA] |  | 22 | 9 |  | clearly induced | acted on local LNs but not in the systemic remote organs | consistency of gene responses among individual mice and organs (LV, SP and LNs; 6 h, FIG. 5): varying gene responses among the individual mice and organs |
| heptanoyl-γ-D-glutamyl-(L)-meso-diaminopimelyl-(D)-alanine [FK565] | G3 | 624 | 1672 | G3 |  | greater responses in LV and SP than in LNs | granulocytosis (granulocytes in blood) (circulating blood cells; mouse, in vivo): caused granulocytosis; leukopenia (circulating blood cells; mouse, in vivo): caused leukopenia; lymphopenia (circulating blood cells; mouse, in vivo): strongly induced |
